Measurements taken from patent US11723908B2, “Quinazoline derivatives as antitumor agents” (SUZHOU ZANRONG PHARMA LIMITED, priority 2018, dated 2023).
Where two headings read alike, the source gives them in different places.

Experiments:
wt-EGFR = wt-EGFR (Homo sapiens (Human), UniProt P00533); assay: NCI H838 cellular assay (wt-EGFR inhibition), phospho-EGFR ELISA; format: cell-based
Protocol: Assay b) NCI H838 Cellular Assay (Wt-EGFR Inhibition) Inhibition of phosphor wt-EGFR was determined by enzyme-linked immunosorbent assay (ELISA) in NCI H838 cells (ATCC, catalog number CRL-5844). Human Phospho-EGFR DuoSet IC ELISA kit was purchased from R&D systems (catalog number DYC1095). Day 1: When the cells reach 70-90% confluence, cells were trypsinized and re-suspended. 5000 cells per well were seeded to a 384-well plate. The plate was incubated at 37° C. with 5% CO2 for 24 hours. Day 2: Cell culture medium was replaced with 40 μL FBS-Free RPMI1640. After 2 hours of starvation, the 384-well plate was dosed with 40 nL of compounds by Echo from source plate and the 384-well plate was incubated at 37° C. with 5% CO2 for 2 hours. After 2 hours of incubation with compounds, EGF (final concentration at 100 ng/ml) was added to the plate which was incubated at 37° C. with 5% CO2 for 5-10 minutes. Medium was discarded from the plate and 30 μl/well lysis buffer was added to the plate which was incubated at 4° C. for 10 minutes. The cell lysates can be stored at −80° C. in cell plates but must be thawed at room temperature for at least 30 minutes prior to use and continuing the assay. ELISA plate was coated by diluting capture antibody to 4 μg/ml with PBS, and 25 μl/well was dispensed to 384 well UltraCruz® ELISA Plate, which was incubated at 4° C. overnight. Day 3: After the plates were washed three times with 100 μl/well of wash buffer, the plates were blocked by adding 75 μl of Block Buffer to each well and incubated at room temperature for 3 hours. After the plates were washed three times with 100 μl/well of wash buffer, 20 μl cell lysate was transferred to the blocked ELISA plate which was incubated for 2 hours at room temperature. After the plates were washed three times with 100 μl/well of wash buffer, 25 μl/well detection antibody (dilute 1 in 900 in assay buffer) was added the plate which was incubated for 2 hours, protected from light. After washed three times, 25 μl/well TMB substrate was added to the ELISA plate which was incubated for about 10-15 min, protected from light before addition of 25 μl/well stop solution. Absorbance was read at 450 nm and 570 nm within 30 minutes.

HER2 = HER2 (Homo sapiens (Human), UniProt P04626); assay: BT474 cellular assay (HER2 inhibition), phospho-HER2 ELISA; format: cell-based; settings: inhibition of phosphor HER2, BT474 cells, 2 hours compound incubation
Protocol: Assay a) BT474 Cellular Assay (HER2 Inhibition) Inhibition of phosphor HER2 was determined by enzyme-linked immunosorbent assay (ELISA) in BT474 cells. BT474 cell line was purchased from [NT] number HTB-20). Human Phospho-ErbB2 ELISA kit was purchased from R&D systems (catalog number DYC1768). Day 1: When the cells reach 70-90% confluence, cells were trypsinized and re-suspended. 5000 cells per well were seeded to a 384-well plate. The plate was incubated at 37° C. with 5% CO2 for 24 hours. ELISA plate was coated with 2 μg/ml capture antibody, which was incubated at 4° C. overnight. Day 2: 25 nl compounds was dosed by Echo from source plate and the 384-well plate was incubated at 37° C. for 2 hours. 30 μl lysis buffer was added to each well and the 384-well plate was shaken softly at 4° C. for 30 minutes. The ELISA plate was washed, blocked and incubated at room temperature for 1-2 hours. The blocked ELISA plate was washed and 20 μl cell lysate was transferred from the 384-well plate to the ELISA plate, which was incubated overnight at 4° C. Day 3: The ELISA plate was washed 3 times. 25 μl/well detection antibody was added (diluted 1 by 2000 in 1% BSA in PBS). After 2 hours of incubation with detection antibody, the ELISA plate was washed 3 times, 25 μl/well TMB substrate was added and incubated for 10-15 minutes before stop solution was added. Absorbance at 450 nm and 570 nm was read within 30 minutes after adding the stop solution. […] The IC50 results are provided in Table 1 for some exemplary compounds.

[1] = inhibition of phosphor wt-EGFR, NCI H838 cells, EGF 100 ng/ml

Sequence of HER2 (P04626 23-1255): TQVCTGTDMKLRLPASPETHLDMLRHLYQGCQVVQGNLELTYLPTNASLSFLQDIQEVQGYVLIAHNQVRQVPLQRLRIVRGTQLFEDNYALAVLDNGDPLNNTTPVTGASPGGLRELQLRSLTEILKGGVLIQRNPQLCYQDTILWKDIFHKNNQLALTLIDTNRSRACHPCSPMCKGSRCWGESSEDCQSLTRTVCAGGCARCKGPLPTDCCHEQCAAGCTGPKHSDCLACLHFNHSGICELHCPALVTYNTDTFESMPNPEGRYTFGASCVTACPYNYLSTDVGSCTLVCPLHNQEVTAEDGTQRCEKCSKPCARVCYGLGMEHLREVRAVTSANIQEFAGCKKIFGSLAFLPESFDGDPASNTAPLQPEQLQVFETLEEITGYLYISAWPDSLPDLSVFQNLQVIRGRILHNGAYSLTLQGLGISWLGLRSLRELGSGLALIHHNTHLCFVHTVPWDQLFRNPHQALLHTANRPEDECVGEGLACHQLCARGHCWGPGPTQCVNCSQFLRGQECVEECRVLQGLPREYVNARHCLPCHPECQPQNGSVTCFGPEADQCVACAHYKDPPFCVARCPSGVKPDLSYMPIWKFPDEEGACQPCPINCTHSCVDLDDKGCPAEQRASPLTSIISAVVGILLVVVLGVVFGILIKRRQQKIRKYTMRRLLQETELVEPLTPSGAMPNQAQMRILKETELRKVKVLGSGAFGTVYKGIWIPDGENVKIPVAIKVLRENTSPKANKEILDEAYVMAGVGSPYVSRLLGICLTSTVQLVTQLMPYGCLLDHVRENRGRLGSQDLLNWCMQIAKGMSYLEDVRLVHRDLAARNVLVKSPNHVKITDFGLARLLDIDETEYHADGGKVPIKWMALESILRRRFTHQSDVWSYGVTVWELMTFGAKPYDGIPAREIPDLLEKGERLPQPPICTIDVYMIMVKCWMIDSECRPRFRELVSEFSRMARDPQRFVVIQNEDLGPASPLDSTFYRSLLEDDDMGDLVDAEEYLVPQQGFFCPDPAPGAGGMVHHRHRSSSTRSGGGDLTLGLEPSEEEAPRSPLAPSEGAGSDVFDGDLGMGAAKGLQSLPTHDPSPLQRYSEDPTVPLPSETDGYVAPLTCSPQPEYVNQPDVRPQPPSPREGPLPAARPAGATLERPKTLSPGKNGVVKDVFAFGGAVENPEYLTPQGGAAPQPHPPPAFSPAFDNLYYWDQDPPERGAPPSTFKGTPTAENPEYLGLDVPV
Sequence of wt-EGFR (P00533 25-1210): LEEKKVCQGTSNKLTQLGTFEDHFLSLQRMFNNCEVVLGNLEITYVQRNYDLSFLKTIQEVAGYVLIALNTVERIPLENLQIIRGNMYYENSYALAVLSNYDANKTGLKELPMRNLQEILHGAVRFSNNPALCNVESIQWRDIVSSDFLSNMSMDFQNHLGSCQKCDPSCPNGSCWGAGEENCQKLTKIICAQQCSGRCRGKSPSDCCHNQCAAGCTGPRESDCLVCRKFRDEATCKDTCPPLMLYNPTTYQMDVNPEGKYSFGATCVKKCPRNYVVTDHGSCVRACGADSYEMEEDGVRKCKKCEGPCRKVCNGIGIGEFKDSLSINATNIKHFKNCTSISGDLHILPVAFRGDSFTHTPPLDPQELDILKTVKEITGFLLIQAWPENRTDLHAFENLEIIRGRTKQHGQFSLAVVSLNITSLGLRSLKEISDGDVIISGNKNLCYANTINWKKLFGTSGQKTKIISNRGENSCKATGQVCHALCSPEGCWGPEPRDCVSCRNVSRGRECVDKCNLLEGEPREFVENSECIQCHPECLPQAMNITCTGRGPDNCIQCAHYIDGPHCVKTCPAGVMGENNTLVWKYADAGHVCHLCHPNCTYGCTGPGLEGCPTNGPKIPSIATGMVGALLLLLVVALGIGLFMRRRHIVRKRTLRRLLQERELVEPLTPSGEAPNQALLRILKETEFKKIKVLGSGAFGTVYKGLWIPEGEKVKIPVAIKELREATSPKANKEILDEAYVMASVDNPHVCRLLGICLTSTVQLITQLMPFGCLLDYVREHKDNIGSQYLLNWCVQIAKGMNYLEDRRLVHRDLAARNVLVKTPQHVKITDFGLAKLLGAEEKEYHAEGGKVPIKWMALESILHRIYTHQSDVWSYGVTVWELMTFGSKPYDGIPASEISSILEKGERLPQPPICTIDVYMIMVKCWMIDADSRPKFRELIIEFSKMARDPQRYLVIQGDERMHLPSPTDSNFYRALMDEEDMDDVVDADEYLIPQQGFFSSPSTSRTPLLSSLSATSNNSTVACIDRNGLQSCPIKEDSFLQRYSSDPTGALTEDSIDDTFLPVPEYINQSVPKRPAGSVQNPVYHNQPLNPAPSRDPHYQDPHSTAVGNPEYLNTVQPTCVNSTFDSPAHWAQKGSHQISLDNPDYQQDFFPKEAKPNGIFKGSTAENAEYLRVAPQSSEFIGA

Row | Structure (SMILES) | IC50 (wt-EGFR; [1]) [µM] | IC50 (HER2) [µM] | IC50 (wt-EGFR) [µM]
1 | COc1ccc2ncnc(Nc3ccc(Oc4cc5ncnn5cn4)c(C)c3)c2c1O[C@H]1CCN(C)CC1(F)F [Example 32, (S)—N-(4-([1,2,4]triazolo[1,5-c]pyrimidin-7-yloxy)-3-methylphenyl)-5-((3,3-difluoro-1-methylpiperidin-4-yl)oxy)-6-methoxyquinazolin-4-amine] |  | 0.016 | 4.8
2 | CCOc1ccc2ncnc(Nc3ccc(Oc4cc5ncnn5cn4)c(C)c3)c2c1N1CC(N(C)C)C1 [Example 11, N-(4-([1,2,4]triazolo[1,5-c]pyrimidin-7-yloxy)-3-methylphenyl)-5-(3-(dimethylamino)azetidin-1-yl)-6-ethoxyquinazolin-4-amine] | 6.7 | 0.013 | 
3 | COc1ccc2ncnc(Nc3ccc(Oc4cc5ncnn5cn4)c(C)c3)c2c1N1C[C@@H](F)[C@H](N(C)C)C1 [Example 40, N-(4-([1,2,4]triazolo[1,5-c]pyrimidin-7-yloxy)-3-methylphenyl)-5-((3R,4R)-3-(dimethylamino)-4-fluoropyrrolidin-1-yl)-6-methoxyquinazolin-4-amine] | > 10 | 0.063 | 
4 | COc1ccc2ncnc(Nc3ccc(Oc4cc5ncnn5cn4)c(C)c3)c2c1N1CC(N(C)C)C1 [Example 1, N-(4-([1,2,4]triazolo[1,5-c]pyrimidin-7-yloxy)-3-methylphenyl)-5-(3-(dimethylamino)azetidin-1-yl)-6-methoxyquinazolin-4-amine] | 2.8 | 0.0092 | 
5 | [2H]C([2H])([2H])N1CCC(Oc2c(OC)ccc3ncnc(Nc4ccc(Oc5cc6ncnn6cn5)c(C)c4)c23)C(F)(F)C1 (centres unmarked) [Example 35, N-(4-([1,2,4]triazolo[1,5-c]pyrimidin-7-yloxy)-3-methylphenyl)-5-((3,3-difluoro-1-(methyl-d3)piperidin-4-yl)oxy)-6-methoxyquinazolin-4-amine] |  | 0.016 | 1.28
6 | Cc1cc(Nc2ncnc3cccc(N4CC5(CN(C)CCO5)C4)c23)ccc1Oc1cc2ncnn2cn1 [Example 55, N-(4-([1,2,4]triazolo[1,5-c]pyrimidin-7-yloxy)-3-methylphenyl)-5-(8-methyl-5-oxa-2,8-diazaspiro[3.5]nonan-2-yl)quinazolin-4-amine] | > 10 | 0.912 | 
7 | [2H]C([2H])([2H])Oc1ccc2ncnc(Nc3ccc(Oc4cc5ncnn5cn4)c(C)c3)c2c1O[C@H]1CCN(C)CC1(F)F [Example 37, (S)—N-(4-([1,2,4]triazolo[1,5-c]pyrimidin-7-yloxy)-3-methylphenyl)-5-((3,3-difluoro-1-methylpiperidin-4-yl)oxy)-6-(methoxy-d3)quinazolin-4-amine] |  | 0.012 | > 10
8 | COc1ccc2ncnc(Nc3ccc(Oc4cc5ncnn5cn4)c(C)c3)c2c1N1C[C@@H]2[C@H]1CCN2C [Example 46, N-(4-([1,2,4]triazolo[1,5-c]pyrimidin-7-yloxy)-3-methylphenyl)-6-methoxy-5-((1R,5R)-2-methyl-2,6-diazabicyclo[3.2.0]heptan-6-yl)quinazolin-4-amine] | 0.215 | 0.0073 | 
9 | COc1ccc2ncnc(Nc3ccc(Oc4cc5ncnn5cn4)c(C)c3)c2c1N1C[C@H]2[C@@H]1CCN2C [Example 45, N-(4-([1,2,4]triazolo[1,5-c]pyrimidin-7-yloxy)-3-methylphenyl)-6-methoxy-5-((1S,5S)-2-methyl-2,6-diazabicyclo[3.2.0]heptan-6-yl)quinazolin-4-amine] | 6.6 | 0.0025 | 
10 | COc1ccc2ncnc(Nc3ccc(Oc4cc5ncnn5cn4)c(C)c3)c2c1N1CC2OCCN(C)C2C1 (centres unmarked) [Example 42, N-(4-([1,2,4]triazolo[1,5-c]pyrimidin-7-yloxy)-3-methylphenyl)-6-methoxy-5-(4-methylhexahydropyrrolo[3,4-b][1,4]oxazin-6(2H)-yl)quinazolin-4-amine] | > 10 | 0.058 | 
11 | COc1cc(O[C@H]2CCN(C)CC2(F)F)c2c(Nc3ccc(Oc4cc5ncnn5cn4)c(C)c3)ncnc2c1 [Example 51, (S)—N-(4-([1,2,4]triazolo[1,5-c]pyrimidin-7-yloxy)-3-methylphenyl)-5-((3,3-difluoro-1-methylpiperidin-4-yl)oxy)-7-methoxyquinazolin-4-amine] | 0.183 | 0.176 | 
12 | Cc1cc(Nc2ncnc3ccc(OCCF)c(N4CC(N(C)C)C4)c23)ccc1Oc1cc2ncnn2cn1 [Example 12, N-(4-([1,2,4]triazolo[1,5-c]pyrimidin-7-yloxy)-3-methylphenyl)-5-(3-(dimethylamino)azetidin-1-yl)-6-(2-fluoroethoxy)quinazolin-4-amine] | 0.18 | 0.026 | 

The next lines start with the values.

Row | IC50 (wt-EGFR; [1]) [µM] | IC50 (HER2) [µM] | IC50 (wt-EGFR) [µM] | Structure (SMILES)
13 | > 10 | 0.037 |  | COc1ccc2ncnc(Nc3ccc(Oc4cc5ncnn5cn4)c(C)c3)c2c1N1CC2(CN(C)CCO2)C1 [Example 38, N-(4-([1,2,4]triazolo[1,5-c]pyrimidin-7-yloxy)-3-methylphenyl)-6-methoxy-5-(8-methyl-5-oxa-2,8-diazaspiro[3.5]nonan-2-yl)quinazolin-4-amine]
14 | 0.33 | 0.031 |  | COc1ccc2ncnc(Nc3ccc(Oc4cc5ncnn5cn4)c(C)c3)c2c1N1CC[C@H](N(C)C)C1 [Example 3, (S)—N-(4-([1,2,4]triazolo[1,5-c]pyrimidin-7-yloxy)-3-methylphenyl)-5-(3-(dimethylamino)pyrrolidin-1-yl)-6-methoxyquinazolin-4-amine]
15 | > 10 | 0.105 |  | COc1ccc2ncnc(Nc3ccc(Oc4cc5ncnn5cn4)c(C)c3)c2c1N1CCOCC1 [Example 4, N-(4-([1,2,4]triazolo[1,5-c]pyrimidin-7-yloxy)-3-methylphenyl)-6-methoxy-5-morpholinoquinazolin-4-amine]
16 | 2.26 | 0.035 |  | COc1ccc2ncnc(Nc3ccc(Oc4cc5ncnn5cn4)c(C)c3)c2c1N1CC2(COCCN2C)C1 [Example 41, N-(4-([1,2,4]triazolo[1,5-c]pyrimidin-7-yloxy)-3-methylphenyl)-6-methoxy-5-(5-methyl-8-oxa-2,5-diazaspiro[3.5]nonan-2-yl)quinazolin-4-amine]
17 | 0.364 | 0.0067 |  | COc1ccc2ncnc(Nc3ccc(Oc4cc5ncnn5cn4)c(C)c3)c2c1N1CC2(C[C@@H](F)CCN2C)C1 (single isomer, unassigned) [Example 48]
18 | 4.54 | 0.0041 |  | COc1ccc2ncnc(Nc3ccc(Oc4cc5ncnn5cn4)c(C)c3)c2c1N1CC2(C[C@H](F)CCN2C)C1 (single isomer, unassigned) [Example 47]
19 | 0.234 | 0.005 |  | COc1ccc2ncnc(Nc3ccc(Oc4cc5ncnn5cn4)c(C)c3)c2c1N1CC2(C[C@@H](F)CN2C)C1 (single isomer, unassigned) [Example 44]
